Where two headings read alike, the source gives them in different places.
Key:
ddy strain of male mice [1] = assay: Analgesic activity, acetic acid-induced stretching method; type: in vivo, mouse (ddy)
Protocol: (§1) Next, several tests for determining the pharmacological properties, in that acute toxicity, anti-pyretic activity, analgesic activity and anti-inflammatory activity of the present 1,1,3,5-substituted biuret compounds of the formula (1) were conducted and the test results are shown in Table (2). In the tests, each compounds to be tested was used as a suspension in 0.25% carboxymethylcellulose solution. Methods for testing are explained as follows:
According to the method reported by Koster et al., [Fed. Proc., Vol. 18, pp. 412 (1959)], the ddy strain of male mice (body weight, 20-25 g) were used as test animals. The mice were fasted overnight, 100 mg/kg body weight of the test compound was administered orally, then 1 hour after the administration, 0.2 ml of 0.7% acetic acid solution was injected intraperitoneally. The acetic acid-induced stretching symptom of mouse was observed. Analgesic activity of the test compound was calculated as the inhibitory ratio (%). In Table 2, the values in parentheses show the data obtained from the test by using the dosage other than 100 mg/kg body weight. Further, the values indicated with Δ marks show 50% effective dose, ED50 (mg/kg body weight).

ddy strain of male mice [2] = assay: Acute toxicity (oral, mice, 7 days observation); type: in vivo
Protocol: as §1
The ddy strain of male mice (body weight, 20-25 g) were used as test animals. The mice were fasted overnight and the compound to be tested was administered orally. […] The lethal dose (mg/kg, body weight) of the test compound was determined in connection with the death number of mice/the number of mice tested. In Table 2, the values indicated with Δ marks are 50% lethal dose, LD50 (mg/kg, body weight).

[3] = tested on: Wistar strain of male rats; assay: Anti-inflammatory activity (acute carrageenin-induced inflammatory test, hindpaw); type: in vivo, rat (Wistar); conditions: for inhibition in vivo at 100 mg/kg / inhibition in vivo at 200 mg/kg: Rattus norvegicus, read-out: Anti-inflammatory activity, inflammation inhibitory ratio
Protocol: as §1
According to the method of acute carrageenin-induced inflammatory test [Folia Pharmacologia Japonica, Vol. 56, pp. 575 (1960)], the Wistar strain of male rats (body weight, 150-180 g) were used as test animals. The rats were fasted overnight, 100 mg/kg body weight of the test compound was administered orally, then 1 hour after the administration, 0.1 ml of 1% carrageenin solution, as the inflammation inducing agent, was injected subcutaneously to the hindpaw of the rat and the volume of the hindpaw was measured at time sequences, Anti-inflammatory activity of the test compound was calculated as inflammation inhibitory ratio (%) at 3 hours after the injection of inflammation inducing agent.

ddy strain of male mice [4] = assay: Analgesic activity, Haffner method (morphine threshold dose, clamp); type: in vivo, mouse (ddy); conditions: for inhibition in vivo at 200 mg/kg: 200 mg/kg oral; for inhibition in vivo at 200 mg/kg / inhibition in vivo at 100 mg/kg: read-out: Analgesic activity, Haffner method, inhibitory ratio; for inhibition in vivo at 100 mg/kg / Analgesic activity, Haffner method, inhibitory ratio: 100 mg/kg oral, 45 minutes before morphine hydrochloride
Protocol: as §1
According to the modified method reported by Fujimura et. al., [Bulletin of the Institute for Chemical Research, Kyoto University, No. 25, pp. 36 (1951)], the ddy strain of male mice (body weight, 20-25 g) were used as test animals. The mice were fasted overnight, 100 mg/kg body weight of the test compound was administered orally, then 45 minutes after the administration, the threshold amount (1.5-2.5 mg/kg body weight) of morphine hydrochloride was injected subcutaneously. Then 1-hour pain reaction of the mouse caused by a clamp was observed. Analgesic activity of the test compound was calculated as the inhibitory ratio (%). In Table 2, the values in parentheses show the data obtained from the test by using the dosage other than 100 mg/kg body weight. Further, the values indicated with Δ marks show 50% effective dose, ED50 (mg/kg body weight).

[5] = tested on: Wistar strain of male rats; assay: Anti-pyretic activity (dry-yeast-induced fever); type: in vivo, rat (Wistar); conditions: oral (dose not given), up to 4 hours after administration
Protocol: as §1
According to the method reported by Tanabe [Folia Pharmacologia Japonica, Vol. 73, pp. 803 (1977)], the Wistar strain of male rats (150-180 g, body weight) were used as test animals. The rats were fasted overnight, and 1 ml/100 g (body weight) of 10% dry-yeast suspension were subcutaneously injected on the back of the rats. Five hours after the injection, the test compound was administered orally, then the body temperature of the rat was measured at time sequences. Anti-pyretic activity of the test compound was determined as the FI (febril index) by integrating pyrogenetic curve up to 4 hours after the administration of the test compound with time, and indicated as inhibitory ratio (%) shown by the following formula, [formula]

[6] = Mus musculus, po, read-out: Analgesic activity, acetic acid-induced stretching method, inhibitory ratio
[7] = 100 mg/kg oral, 3 hours after carrageenin
[8] = Mus musculus, oral, Δ mark, range in parentheses

For `CN(C)C(=O)NC(=O)Nc1ccccc1` [Compound No. 1], which inhibition in vivo at 100 mg/kg (ddy strain of male mice [1]; [6]) is on record?
Its inhibition in vivo at 100 mg/kg is 50%.

And the “Acute toxicity: death number of mice/number of mice tested” value (ddy strain of male mice [2]; mouse, in vivo)?
Its value is 0/4.

What about the inhibition in vivo at 100 mg/kg [3, 7] of the same molecule?
Its inhibition in vivo at 100 mg/kg is 42%.

What about the inhibition in vivo at 200 mg/kg (ddy strain of male mice [4]; Mus musculus) of the same molecule?
The inhibition in vivo at 200 mg/kg was 50%.

Which inhibition in vivo at 100 mg/kg (ddy strain of male mice [1]; [6]) does the source give for `COc1ccc(NC(=O)NC(=O)N(C)C)cc1` [Compound No. 4, 1,1-Dimethyl-5-(4-methoxyphenyl)biuret] here?
Its inhibition in vivo at 100 mg/kg is 75%.

What about the “Acute toxicity: death number of mice/number of mice tested” value (ddy strain of male mice [2]; 2000 mg/kg oral) of the same molecule?
The value was 0/4.

What about the inhibition in vivo at 100 mg/kg ([3]; po, 3 h) of the same molecule?
Its inhibition in vivo at 100 mg/kg is 43%.

And the inhibition in vivo at 100 mg/kg (ddy strain of male mice [4]; Mus musculus)?
Its inhibition in vivo at 100 mg/kg is 50%.

What does the source list for `Cc1ccc(NC(=O)NC(=O)N(C)C)cc1` [Compound No. 5]?
inhibition in vivo at 100 mg/kg (ddy strain of male mice [1]; [6]): 25%; Acute toxicity: death number of mice/number of mice tested (ddy strain of male mice [2]; 2000 mg/kg oral): 0/4; inhibition in vivo at 100 mg/kg ([3]; po, 2 h): 23%

With `CN(C)C(=O)N(C)C(=O)Nc1ccccc1` [Compound No. 6, 1,1,3-trimethyl-5-phenylbiuret] as the molecule, how does the ED50 (ddy strain of male mice [1]; [8]) read?
The ED50 was 75 mg/kg.

And the “Anti-pyretic activity, inhibitory ratio (febril index)” value [5]?
Its value is 80%.

And the “Anti-inflammatory activity, inflammation inhibitory ratio” value [3, 7]?
Its value is 59%.

And the ED50 (ddy strain of male mice [4]; [8])?
The ED50 was 68 mg/kg.

Which inhibition in vivo at 100 mg/kg (ddy strain of male mice [1]; Mus musculus, 100 mg/kg oral, 1 hour before acetic acid, read-out: Analgesic activity, acetic acid-induced stretching method, inhibitory ratio) does the source give for `CCN(C)C(=O)NC(=O)Nc1ccccc1` [Compound No. 43, 1-ethyl-1-methyl-5-phenylbiuret] here?
The inhibition in vivo at 100 mg/kg was 50%.

And the “Acute toxicity: death number of mice/number of mice tested” value (ddy strain of male mice [2]; 2000 mg/kg oral)?
The value was 0/4.

What about the inhibition in vivo at 200 mg/kg ([3]; 200 mg/kg oral, 3 hours after carrageenin) of the same molecule?
Its inhibition in vivo at 200 mg/kg is 72%.

And the inhibition in vivo at 200 mg/kg (ddy strain of male mice [4]; Mus musculus)?
Its inhibition in vivo at 200 mg/kg is 12.5%.

What does the source list for `CN(C)C(=O)N(C)C(=O)Nc1ccc([N+](=O)[O-])cc1` [compound 20, 1,1,3-Trimethyl-5-(4-nitrophenyl)biuret]?
Anti-pyretic activity, inhibitory ratio (febril index) [5]: 26%; Acute toxicity: death number of mice/number of mice tested (ddy strain of male mice [2]; 500 mg/kg oral): 2/4; Anti-inflammatory activity, inflammation inhibitory ratio [3, 7]: 32%; Analgesic activity, Haffner method, inhibitory ratio (ddy strain of male mice [4]): 50%

Which results are given for `COc1cc(NC(=O)N(C)C(=O)N(C)C)cc(OC)c1OC` [compound 25, 1,1,3-Trimethyl-5-(3,4,5-trimethoxyphenyl)biuret]?
Anti-pyretic activity, inhibitory ratio (febril index) [5]: 23%; Acute toxicity: death number of mice/number of mice tested (ddy strain of male mice [2]; 500 mg/kg oral): 0/4; Acute toxicity: death number of mice/number of mice tested (ddy strain of male mice [2]; 1000 mg/kg oral): 2/4; Anti-inflammatory activity, inflammation inhibitory ratio [3, 7]: 30%; Analgesic activity, Haffner method, inhibitory ratio (ddy strain of male mice [4]): 62.5%

`CC(=O)c1ccc(NC(=O)N(C)C(=O)N(C)C)cc1` [compound 33, 1,1,3-Trimethyl-5-(4-acetylphenyl)biuret] was tested. Which “Anti-pyretic activity, inhibitory ratio (febril index)” value [5] did it give?
The value was 36%.

And the “Acute toxicity: death number of mice/number of mice tested” value (ddy strain of male mice [2]; 500 mg/kg oral)?
Its value is 0/4.

And the “Acute toxicity: death number of mice/number of mice tested” value (ddy strain of male mice [2]; 1000 mg/kg oral)?
Its value is 4/4.

And the “Anti-inflammatory activity, inflammation inhibitory ratio” value ([3]; 100 mg/kg oral, (2 hours))?
The value was 31%.

What about the “Analgesic activity, Haffner method, inhibitory ratio” value (ddy strain of male mice [4]) of the same molecule?
The value was 37.5%.

How did the “Analgesic activity, acetic acid-induced stretching method, inhibitory ratio” value (ddy strain of male mice [1]; 200 mg/kg oral) turn out when `CN(C)C(=O)N(C)C(=O)NC1CCCCC1` [compound 35, 1,1,3-Trimethyl-5-cyclohexylbiuret] was run?
Its value is 87.5%.

And the inhibition in vivo at 100 mg/kg ([3]; po, 3 h)?
Its inhibition in vivo at 100 mg/kg is 24%.

What about the “Analgesic activity, Haffner method, inhibitory ratio” value (ddy strain of male mice [4]) of the same molecule?
Its value is 25%.

How did the inhibition in vivo at 100 mg/kg (ddy strain of male mice [1]; [6]) turn out when `CCCCN(C)C(=O)NC(=O)Nc1ccccc1` [compound 47, 1-Methyl-1-n-butyl-5-phenylbiuret] was run?
The inhibition in vivo at 100 mg/kg was 50%.

And the “Acute toxicity: death number of mice/number of mice tested” value (ddy strain of male mice [2]; 2000 mg/kg oral)?
Its value is 0/4.

What about the inhibition in vivo at 100 mg/kg [3, 7] of the same molecule?
The inhibition in vivo at 100 mg/kg was 20%.

What about the inhibition in vivo at 100 mg/kg (ddy strain of male mice [4]; Mus musculus) of the same molecule?
The inhibition in vivo at 100 mg/kg was 25%.

Which results are given for `CN(C(=O)Nc1ccccc1)C(=O)N1CC1` [compound 66, 1,1-Ethylene-3-methyl-5-phenylbiuret]?
inhibition in vivo at 100 mg/kg (ddy strain of male mice [1]; [6]): 62.5%; Anti-pyretic activity, inhibitory ratio (febril index) [5]: 28%; Acute toxicity: death number of mice/number of mice tested (ddy strain of male mice [2]; 250 mg/kg oral): 2/4; Acute toxicity: death number of mice/number of mice tested (ddy strain of male mice [2]; 500 mg/kg oral): 4/4; inhibition in vivo at 100 mg/kg (ddy strain of male mice [4]; Mus musculus): 25%

For `O=C(NC(=O)N1CCCC1)Nc1ccccc1` [compound 67, 1,1-Tetramethylene-5-phenylbiuret], which inhibition in vivo at 100 mg/kg (ddy strain of male mice [1]; [6]) is on record?
The inhibition in vivo at 100 mg/kg was 50%.

What about the “Acute toxicity: death number of mice/number of mice tested” value (ddy strain of male mice [2]; 2000 mg/kg oral) of the same molecule?
Its value is 0/4.

What about the inhibition in vivo at 100 mg/kg ([3]; po, 3 h) of the same molecule?
The inhibition in vivo at 100 mg/kg was 33%.

What about the inhibition in vivo at 100 mg/kg (ddy strain of male mice [4]; Mus musculus) of the same molecule?
The inhibition in vivo at 100 mg/kg was 37.5%.

Which inhibition in vivo at 200 mg/kg (ddy strain of male mice [1]; Mus musculus, 200 mg/kg oral, read-out: Analgesic activity, acetic acid-induced stretching method, inhibitory ratio) does the source give for `O=C(NC(=O)N1CCOCC1)Nc1ccccc1` [compound 71, 1,1-(3-Oxapentamethylene)-5-phenylbiuret] here?
The inhibition in vivo at 200 mg/kg was 40%.

What about the “Acute toxicity: death number of mice/number of mice tested” value (ddy strain of male mice [2]; mouse, in vivo) of the same molecule?
The value was 0/4.

What about the inhibition in vivo at 200 mg/kg ([3]; po, 3 h) of the same molecule?
The inhibition in vivo at 200 mg/kg was 23%.

And the inhibition in vivo at 200 mg/kg (ddy strain of male mice [4]; Mus musculus)?
The inhibition in vivo at 200 mg/kg was 50%.

For `CN(C(=O)Nc1ccccc1)C(=O)N1CCOCC1` [compound 73, 1,1-(3-Oxapentamethylene)-3-methyl-5-phenylbiuret], which inhibition in vivo at 100 mg/kg (ddy strain of male mice [1]; [6]) is on record?
The inhibition in vivo at 100 mg/kg was 50%.

And the “Anti-pyretic activity, inhibitory ratio (febril index)” value [5]?
Its value is 17%.

What about the “Acute toxicity: death number of mice/number of mice tested” value (ddy strain of male mice [2]; mouse, in vivo) of the same molecule?
Its value is 0/4.

And the inhibition in vivo at 100 mg/kg (ddy strain of male mice [4]; Mus musculus)?
The inhibition in vivo at 100 mg/kg was 25%.
